Results taken from patent US10130095B2, “Fungicidal compositions of pyrazolecarboxylic acid alkoxyamides” (BASF AGRO B.V., priority 2014, dated 2018).

What was measured:
[1] = tested on: Septoria tritici; assay: in vivo preventive Septoria tritici test (wheat); details: 15 ppm a.i., evaluated 21 days after inoculation
Description: Solvent: 49 parts by weight of N,N-dimethylacetamide Emulsifier: 1 part by weight of alkylaryl polyglycol ether To produce a suitable preparation of active compound, 1 part by weight of active compound or active compound combination is mixed with the stated amounts of solvent and emulsifier, and the concentrate is diluted with water to the desired concentration. To test for preventive activity, young plants are sprayed with the preparation of active compound or active compound combination at the stated rate of application. After the spray coating has been dried, the plants are sprayed with a spore suspension of Septoria tritici. The plants remain for 48 hours in an incubation cabinet at approximately 20° C. and a relative atmospheric humidity of approximately 100% and afterwards for 60 hours at approximately 15° C. in a translucent incubation cabinet at a relative atmospheric humidity of approximately 100%. The plants are placed in the greenhouse at a temperature of approximately 15° C. and a relative atmospheric humidity of approximately 80%. The test is evaluated 21 days after the inoculation. 0% means an efficacy which corresponds to that of the untreated control, while an efficacy of 100% means that no disease is observed.

[2] = tested on: Venturia inaequalis; assay: in vivo preventive test on Venturia test (apples); details: evaluated 10 days after inoculation
Description: (§1) Solvent: 24.5 parts by weight of acetone • 24.5 parts by weight of dimethylacetamide Emulsifier: 1 part by weight of alkylaryl polyglycol ether To produce a suitable preparation of active compound, 1 part by weight of active compound is mixed with the stated amounts of solvent and emulsifier, and the concentrate is diluted with water to the desired concentration. To test for preventive activity, young plants are sprayed with the preparation of active compound at the stated rate of application. After the spray coating has dried on, the plants are inoculated with an aqueous conidia suspension of the causal agent of apple scab (Venturia inaequalis) and then remain for 1 day in an incubation cabinet at approximately 20° C. and a relative atmospheric humidity of 100%. The plants are then placed in a greenhouse at approximately 21° C. and a relative atmospheric humidity of approximately 90%. The test is evaluated 10 days after the inoculation. 0% means an efficacy which corresponds to that of the untreated control, while an efficacy of 100% means that no disease is observed.

[3] = tested on: Alternaria solani; assay: in vivo preventive test on Alternaria test (tomatoes); details: evaluated 3 days after inoculation
Description: as §1, with “aqueous spore” for “aqueous conidia”, “of Alternaria solani. The plants are” for “of the causal agent of apple scab (Venturia inaequalis) and”, “then placed” for “then remain for 1 day”, “The” for “The plants are then placed in a greenhouse at approximately 21° C. and a relative atmospheric humidity of approximately 90%. The”, “evaluated 3” for “evaluated 10”, “untreated control” for “untreated control,”

[4] = tested on: Botrytis cinerea; assay: in vivo preventive test on Botrytis test (beans); details: evaluated 2 days after inoculation
Description: Solvent: 24.5 parts by weight of acetone • 24.5 parts by weight of dimethylacetamide Emulsifier: 1 part by weight of alkylaryl polyglycol ether To produce a suitable preparation of active compound, 1 part by weight of active compound is mixed with the stated amounts of solvent and emulsifier, and the concentrate is diluted with water to the desired concentration. To test for preventive activity, young plants are sprayed with the preparation of active compound. After the spray coating has dried on, 2 small pieces of agar covered with growth of Botrytis cinerea are placed on each leaf. The inoculated plants are placed in a darkened chamber at 20° C. and a relative at mospheric humidity of 100%. 2 days after the inoculation, the size of the lesions on the leaves is evaluated. 0% means an efficacy which corresponds to that of the untreated control, while an efficacy of 100% means that no disease is observed.

For `CCC(O)(Cn1cncn1)c1ccc(Oc2ccc(Cl)cc2)cc1C(F)(F)F` (centres unmarked) [(B1-2), 2-[4-(4-chlorophenoxy)-2-(trifluoromethyl)phenyl]-1-(1H-1,2,4-triazol-1-yl)butan-2-ol], the “Efficacy in % found” value [1] was 13%, the “Efficacy in % found” value ([2]; 1.25 ppm a.i.) was 30% and the “Efficacy in % found” value ([3]; 1.25 ppm a.i.) was 8%. For the same molecule, the “Efficacy in % found” value ([3]; 2.5 ppm a.i.) was 30%.
For `CON(C(=O)c1cn(C)nc1C(F)F)C(C)Cc1c(Cl)cc(Cl)cc1Cl` (centres unmarked) [(I-1), 3-(difluoromethyl)-N-methoxy-1-methyl-N-[1-(2,4,6-trichlorophenyl)propan-2-yl]-1H-pyrazole-4-carboxamide], the “Efficacy in % found” value ([4]; 0.5 ppm a.i.) was 8% and the “Efficacy in % found” value ([2]; 0.125 ppm a.i.) was 76%.
With `CC(O)(Cn1cncn1)c1ccc(Oc2ccc(Cl)cc2)cc1C(F)(F)F` (centres unmarked) [(B1-1), 2-[4-(4-Chlorophenoxy)-2-(trifluoromethyl)phenyl]-1-(1H-1,2,4-triazol-1-yl)propan-2-ol] the “Efficacy in % found” value ([4]; 5 ppm a.i.) was 20% and the “Efficacy in % found” value [1] was 0%.
